In patent publication US12157741B2, “Macrocyclic inhibitors of DYRK1A” (DANA-FARBER CANCER INSTITUTE, INC., priority 2018, dated 2024):
Read-outs that look alike come from different tables or passages of the source.

Key:
Type in all cases: binding
various enzymes [1] = biological target: various enzymes (Homo sapiens, UniProt Q13163); conditions: compound 1 uM
Description: (§1) Ambit profiling was conducted in accordance with the manufacturer's instructions.

various enzymes [2] = biological target: various enzymes (Homo sapiens, UniProt Q9BQI3); conditions: compound 1 uM
Description: as §1

various enzymes [3] = biological target: various enzymes (Homo sapiens, UniProt Q9H4A3); conditions: compound 1 uM
Sequence of various enzymes (Homo sapiens, UniProt Q9H4A3) (Q9H4A3 whole entry): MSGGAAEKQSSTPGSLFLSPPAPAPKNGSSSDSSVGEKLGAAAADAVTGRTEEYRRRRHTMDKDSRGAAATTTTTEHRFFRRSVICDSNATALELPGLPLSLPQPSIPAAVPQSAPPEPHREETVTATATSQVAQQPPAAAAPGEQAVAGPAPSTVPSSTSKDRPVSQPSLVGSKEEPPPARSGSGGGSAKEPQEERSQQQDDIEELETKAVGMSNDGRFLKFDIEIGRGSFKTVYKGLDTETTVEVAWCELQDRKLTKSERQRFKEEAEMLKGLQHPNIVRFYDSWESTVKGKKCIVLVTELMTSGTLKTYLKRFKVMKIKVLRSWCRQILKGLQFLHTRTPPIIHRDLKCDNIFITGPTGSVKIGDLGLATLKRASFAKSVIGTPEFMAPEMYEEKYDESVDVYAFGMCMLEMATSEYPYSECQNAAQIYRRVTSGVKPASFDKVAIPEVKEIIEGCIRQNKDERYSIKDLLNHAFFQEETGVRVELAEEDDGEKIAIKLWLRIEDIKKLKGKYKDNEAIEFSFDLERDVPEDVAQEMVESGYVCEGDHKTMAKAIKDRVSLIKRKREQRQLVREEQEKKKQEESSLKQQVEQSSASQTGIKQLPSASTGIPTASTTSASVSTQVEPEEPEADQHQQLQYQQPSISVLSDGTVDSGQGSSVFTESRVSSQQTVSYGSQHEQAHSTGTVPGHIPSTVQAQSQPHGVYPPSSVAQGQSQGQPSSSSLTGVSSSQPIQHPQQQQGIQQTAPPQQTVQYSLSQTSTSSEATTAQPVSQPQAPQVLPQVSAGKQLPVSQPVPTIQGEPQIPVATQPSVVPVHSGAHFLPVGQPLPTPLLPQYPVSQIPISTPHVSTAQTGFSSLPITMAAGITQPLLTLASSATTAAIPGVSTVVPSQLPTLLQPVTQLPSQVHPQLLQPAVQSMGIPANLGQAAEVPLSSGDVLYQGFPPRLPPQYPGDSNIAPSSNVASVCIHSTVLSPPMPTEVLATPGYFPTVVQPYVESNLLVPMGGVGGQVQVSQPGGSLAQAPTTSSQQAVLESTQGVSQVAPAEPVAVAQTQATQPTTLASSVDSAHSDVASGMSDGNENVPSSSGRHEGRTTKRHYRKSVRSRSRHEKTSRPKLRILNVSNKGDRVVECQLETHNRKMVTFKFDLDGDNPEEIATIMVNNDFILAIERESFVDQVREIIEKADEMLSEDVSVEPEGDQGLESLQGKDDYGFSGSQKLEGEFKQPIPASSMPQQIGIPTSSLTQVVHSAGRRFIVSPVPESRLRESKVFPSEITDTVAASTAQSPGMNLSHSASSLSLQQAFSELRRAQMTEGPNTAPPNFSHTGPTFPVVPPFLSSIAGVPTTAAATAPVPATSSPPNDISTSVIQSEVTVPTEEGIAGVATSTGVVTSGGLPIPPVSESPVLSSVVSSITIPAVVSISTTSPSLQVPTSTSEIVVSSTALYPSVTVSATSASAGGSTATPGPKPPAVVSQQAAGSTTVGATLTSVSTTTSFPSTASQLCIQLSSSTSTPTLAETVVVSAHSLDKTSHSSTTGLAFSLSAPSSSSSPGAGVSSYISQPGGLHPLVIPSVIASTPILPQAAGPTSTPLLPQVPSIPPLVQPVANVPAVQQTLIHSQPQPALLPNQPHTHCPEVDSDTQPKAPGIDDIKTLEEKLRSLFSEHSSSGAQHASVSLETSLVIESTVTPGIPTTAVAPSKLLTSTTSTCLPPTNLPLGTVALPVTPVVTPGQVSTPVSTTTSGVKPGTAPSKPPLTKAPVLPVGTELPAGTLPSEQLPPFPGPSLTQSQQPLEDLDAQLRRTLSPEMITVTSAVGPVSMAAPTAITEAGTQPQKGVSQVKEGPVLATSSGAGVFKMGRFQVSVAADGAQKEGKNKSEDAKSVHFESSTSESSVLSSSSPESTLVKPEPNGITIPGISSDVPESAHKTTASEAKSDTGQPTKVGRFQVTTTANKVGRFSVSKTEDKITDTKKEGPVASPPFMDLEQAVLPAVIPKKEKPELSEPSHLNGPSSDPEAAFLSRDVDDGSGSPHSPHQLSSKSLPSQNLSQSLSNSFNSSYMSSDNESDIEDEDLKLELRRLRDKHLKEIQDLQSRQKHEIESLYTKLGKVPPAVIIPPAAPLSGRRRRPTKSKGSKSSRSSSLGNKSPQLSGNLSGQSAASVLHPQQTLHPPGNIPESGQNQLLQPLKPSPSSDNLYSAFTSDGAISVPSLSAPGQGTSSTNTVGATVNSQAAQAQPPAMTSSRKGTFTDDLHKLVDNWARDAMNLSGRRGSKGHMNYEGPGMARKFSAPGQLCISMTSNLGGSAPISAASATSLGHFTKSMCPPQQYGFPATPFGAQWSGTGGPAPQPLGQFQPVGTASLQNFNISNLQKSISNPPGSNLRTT
Description: as §1

various enzymes [4] = biological target: various enzymes (Homo sapiens, UniProt Q14680); conditions: compound 1 uM
Description: as §1

various enzymes [5] = biological target: T1, various enzymes (Homo sapiens, UniProt Q9H093); conditions: compound 1 uM
T1 sequence (Q9H093 1-628): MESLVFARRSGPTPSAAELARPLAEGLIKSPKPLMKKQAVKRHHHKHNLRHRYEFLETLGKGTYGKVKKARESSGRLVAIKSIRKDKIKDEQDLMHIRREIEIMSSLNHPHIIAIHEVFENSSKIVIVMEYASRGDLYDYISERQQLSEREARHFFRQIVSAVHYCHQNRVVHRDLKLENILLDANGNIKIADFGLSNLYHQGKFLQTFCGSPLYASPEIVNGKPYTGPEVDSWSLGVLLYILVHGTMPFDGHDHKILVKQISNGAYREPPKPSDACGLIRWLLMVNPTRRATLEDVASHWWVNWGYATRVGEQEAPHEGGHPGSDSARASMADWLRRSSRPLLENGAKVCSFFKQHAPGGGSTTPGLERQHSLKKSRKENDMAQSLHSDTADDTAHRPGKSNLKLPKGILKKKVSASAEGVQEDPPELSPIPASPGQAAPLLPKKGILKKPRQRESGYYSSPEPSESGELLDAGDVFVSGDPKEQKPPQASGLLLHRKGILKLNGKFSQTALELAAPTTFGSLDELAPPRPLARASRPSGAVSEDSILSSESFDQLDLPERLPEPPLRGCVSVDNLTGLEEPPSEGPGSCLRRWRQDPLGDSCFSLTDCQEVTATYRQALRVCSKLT
Description: as §1

various enzymes [6] = biological target: various enzymes (Homo sapiens, UniProt Q14012); conditions: compound 1 uM
Description: as §1

various enzymes [7] = biological target: various enzymes (Homo sapiens, UniProt P49760); conditions: compound 1 uM
Description: as §1

various enzymes [8] = biological target: various enzymes (Homo sapiens, UniProt O14730); conditions: compound 1 uM
Sequence of various enzymes (Homo sapiens, UniProt O14730) (O14730 whole entry): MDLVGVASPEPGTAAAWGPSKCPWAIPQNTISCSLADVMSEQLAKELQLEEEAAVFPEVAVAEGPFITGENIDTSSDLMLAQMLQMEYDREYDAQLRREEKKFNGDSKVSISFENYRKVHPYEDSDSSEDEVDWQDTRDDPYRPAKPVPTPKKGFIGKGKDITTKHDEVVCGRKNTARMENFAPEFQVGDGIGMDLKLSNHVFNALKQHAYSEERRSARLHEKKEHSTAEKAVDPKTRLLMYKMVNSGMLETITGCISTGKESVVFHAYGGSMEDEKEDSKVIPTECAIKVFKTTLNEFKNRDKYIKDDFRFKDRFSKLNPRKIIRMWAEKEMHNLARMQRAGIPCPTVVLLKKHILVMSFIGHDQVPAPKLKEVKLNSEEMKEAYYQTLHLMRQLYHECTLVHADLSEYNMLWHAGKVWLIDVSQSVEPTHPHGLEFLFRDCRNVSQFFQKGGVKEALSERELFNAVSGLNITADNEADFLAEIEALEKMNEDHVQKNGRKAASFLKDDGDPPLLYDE
Description: as §1

various enzymes [9] = biological target: T2, various enzymes (Homo sapiens, UniProt P29323); conditions: compound 1 uM
T2 sequence (P29323 19-1055): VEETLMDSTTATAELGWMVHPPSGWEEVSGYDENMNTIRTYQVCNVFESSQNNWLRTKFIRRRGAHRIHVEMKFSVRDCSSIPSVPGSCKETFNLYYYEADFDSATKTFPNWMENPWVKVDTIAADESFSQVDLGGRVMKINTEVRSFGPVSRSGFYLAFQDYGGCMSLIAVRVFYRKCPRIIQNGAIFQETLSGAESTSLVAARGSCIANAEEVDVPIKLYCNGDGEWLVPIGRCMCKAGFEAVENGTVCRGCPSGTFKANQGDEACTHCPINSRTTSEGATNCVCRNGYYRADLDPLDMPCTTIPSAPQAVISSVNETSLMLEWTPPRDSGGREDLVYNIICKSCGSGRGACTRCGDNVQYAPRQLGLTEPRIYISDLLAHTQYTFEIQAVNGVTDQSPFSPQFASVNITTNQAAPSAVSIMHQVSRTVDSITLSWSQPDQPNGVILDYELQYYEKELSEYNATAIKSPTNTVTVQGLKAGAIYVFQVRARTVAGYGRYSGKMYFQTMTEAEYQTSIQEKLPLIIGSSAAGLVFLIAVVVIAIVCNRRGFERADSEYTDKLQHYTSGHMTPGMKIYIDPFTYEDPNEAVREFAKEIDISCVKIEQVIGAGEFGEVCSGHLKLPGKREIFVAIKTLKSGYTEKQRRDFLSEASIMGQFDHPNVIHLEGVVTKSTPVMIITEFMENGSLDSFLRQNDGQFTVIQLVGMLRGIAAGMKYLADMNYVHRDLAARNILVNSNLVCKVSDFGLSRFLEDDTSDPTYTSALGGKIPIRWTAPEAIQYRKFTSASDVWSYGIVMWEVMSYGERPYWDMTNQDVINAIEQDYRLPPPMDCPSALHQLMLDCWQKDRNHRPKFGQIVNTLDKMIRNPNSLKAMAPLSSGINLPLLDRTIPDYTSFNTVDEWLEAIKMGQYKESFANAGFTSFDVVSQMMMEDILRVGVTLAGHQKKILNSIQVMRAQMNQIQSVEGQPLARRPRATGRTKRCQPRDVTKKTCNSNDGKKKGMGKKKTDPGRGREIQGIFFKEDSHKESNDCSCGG
Description: as §1

various enzymes [10] = biological target: various enzymes (Homo sapiens, UniProt Q9UM73, C1156Y)
Description: as §1

various enzymes [11] = biological target: various enzymes (Homo sapiens, UniProt Q00537); conditions: compound 1 uM
Sequence of various enzymes (Homo sapiens, UniProt Q00537) (Q00537 whole entry): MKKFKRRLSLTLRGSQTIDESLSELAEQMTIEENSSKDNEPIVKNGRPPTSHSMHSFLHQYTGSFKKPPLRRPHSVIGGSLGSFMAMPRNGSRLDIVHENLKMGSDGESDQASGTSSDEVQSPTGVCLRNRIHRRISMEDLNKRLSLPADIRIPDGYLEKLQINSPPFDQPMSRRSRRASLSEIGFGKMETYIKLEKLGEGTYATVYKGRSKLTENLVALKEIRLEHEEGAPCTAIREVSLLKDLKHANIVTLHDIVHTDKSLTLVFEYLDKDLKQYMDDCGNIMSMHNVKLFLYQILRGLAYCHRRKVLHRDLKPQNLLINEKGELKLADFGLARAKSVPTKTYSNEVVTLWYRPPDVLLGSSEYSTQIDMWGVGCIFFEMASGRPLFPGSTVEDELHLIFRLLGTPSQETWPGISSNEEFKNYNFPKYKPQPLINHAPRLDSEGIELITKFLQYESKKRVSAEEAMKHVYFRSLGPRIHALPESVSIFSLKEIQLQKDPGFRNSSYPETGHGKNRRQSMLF
Description: as §1

various enzymes [12] = biological target: various enzymes (Homo sapiens, UniProt P29322); conditions: compound 1 uM
Sequence of various enzymes (Homo sapiens, UniProt P29322) (P29322 28-1005): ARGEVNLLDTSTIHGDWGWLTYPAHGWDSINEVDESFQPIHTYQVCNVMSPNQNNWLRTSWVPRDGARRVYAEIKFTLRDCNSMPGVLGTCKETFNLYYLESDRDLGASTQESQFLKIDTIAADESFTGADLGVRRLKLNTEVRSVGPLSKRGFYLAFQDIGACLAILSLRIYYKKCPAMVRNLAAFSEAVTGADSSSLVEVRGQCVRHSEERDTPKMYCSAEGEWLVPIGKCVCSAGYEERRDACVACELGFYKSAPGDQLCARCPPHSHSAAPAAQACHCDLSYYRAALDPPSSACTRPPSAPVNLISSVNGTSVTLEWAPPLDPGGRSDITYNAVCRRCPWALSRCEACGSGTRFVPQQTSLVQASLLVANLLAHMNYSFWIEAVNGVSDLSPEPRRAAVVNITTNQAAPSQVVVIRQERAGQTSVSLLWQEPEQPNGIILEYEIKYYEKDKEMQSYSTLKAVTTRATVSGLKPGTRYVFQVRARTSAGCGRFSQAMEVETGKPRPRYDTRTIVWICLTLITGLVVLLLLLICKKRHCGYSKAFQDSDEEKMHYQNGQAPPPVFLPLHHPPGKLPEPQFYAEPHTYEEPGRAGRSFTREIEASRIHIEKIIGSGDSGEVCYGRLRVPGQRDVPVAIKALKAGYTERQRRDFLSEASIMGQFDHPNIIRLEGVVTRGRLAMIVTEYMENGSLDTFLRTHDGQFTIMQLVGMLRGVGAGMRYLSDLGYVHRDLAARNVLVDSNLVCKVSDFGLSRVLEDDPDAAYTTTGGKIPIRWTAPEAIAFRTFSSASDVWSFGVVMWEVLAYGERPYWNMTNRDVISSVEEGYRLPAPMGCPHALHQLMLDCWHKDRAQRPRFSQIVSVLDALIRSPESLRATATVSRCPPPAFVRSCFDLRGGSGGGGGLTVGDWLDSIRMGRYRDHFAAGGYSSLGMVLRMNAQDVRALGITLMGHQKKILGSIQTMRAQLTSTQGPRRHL
Description: as §1

various enzymes [13] = biological target: T3, various enzymes (Homo sapiens, UniProt Q08881); conditions: compound 1 uM
T3 sequence (Q08881 1-620): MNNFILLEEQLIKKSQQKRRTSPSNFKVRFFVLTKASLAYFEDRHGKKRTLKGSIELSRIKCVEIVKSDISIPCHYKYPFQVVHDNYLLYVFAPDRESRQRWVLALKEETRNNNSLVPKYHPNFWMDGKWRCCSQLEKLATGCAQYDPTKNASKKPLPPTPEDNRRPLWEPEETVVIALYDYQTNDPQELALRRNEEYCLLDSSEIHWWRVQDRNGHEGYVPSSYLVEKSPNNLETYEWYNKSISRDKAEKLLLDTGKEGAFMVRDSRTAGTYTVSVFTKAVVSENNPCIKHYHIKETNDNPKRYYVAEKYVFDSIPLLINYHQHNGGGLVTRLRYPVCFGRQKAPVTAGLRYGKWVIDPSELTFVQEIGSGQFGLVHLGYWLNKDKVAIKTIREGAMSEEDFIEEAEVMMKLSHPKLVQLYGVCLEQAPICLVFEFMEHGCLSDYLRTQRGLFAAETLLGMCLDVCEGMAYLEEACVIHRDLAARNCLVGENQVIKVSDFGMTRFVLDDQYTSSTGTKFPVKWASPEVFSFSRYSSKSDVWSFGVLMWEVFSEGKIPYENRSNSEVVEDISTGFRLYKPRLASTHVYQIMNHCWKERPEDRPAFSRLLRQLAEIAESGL
Description: as §1

various enzymes [14] = biological target: various enzymes (Homo sapiens, UniProt P10721, V559D)
Description: as §1

Sequence of various enzymes (Homo sapiens, UniProt Q13163) (Q13163 whole entry): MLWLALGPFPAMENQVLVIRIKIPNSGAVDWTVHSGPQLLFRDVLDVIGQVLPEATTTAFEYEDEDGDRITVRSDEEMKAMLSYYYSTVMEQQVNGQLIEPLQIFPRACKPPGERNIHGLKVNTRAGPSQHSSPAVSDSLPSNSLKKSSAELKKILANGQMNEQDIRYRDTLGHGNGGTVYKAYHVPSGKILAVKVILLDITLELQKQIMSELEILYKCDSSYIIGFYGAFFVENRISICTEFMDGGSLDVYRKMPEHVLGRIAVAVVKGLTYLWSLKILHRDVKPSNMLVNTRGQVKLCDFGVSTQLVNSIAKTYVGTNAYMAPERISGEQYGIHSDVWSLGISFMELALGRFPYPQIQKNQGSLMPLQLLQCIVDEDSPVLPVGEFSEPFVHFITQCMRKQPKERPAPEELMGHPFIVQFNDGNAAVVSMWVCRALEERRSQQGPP

SMILES	Ambit profiling: MEK5 (various enzymes [1])	Ambit profiling: EIF2AK1 (various enzymes [2])	Ambit profiling: WNK1 (various enzymes [3])	Ambit profiling: MELK (various enzymes [4])	Ambit profiling: SNARK (various enzymes [5])	Ambit profiling: CAMK1 (various enzymes [6])	Ambit profiling: CLK2 (various enzymes [7])	Ambit profiling: RIOK3 (various enzymes [8])	Ambit profiling: EPHB2 (various enzymes [9])	Ambit profiling: ALK(C1156Y) (various enzymes [10])	Ambit profiling: PCTK2 (various enzymes [11])	Ambit profiling: EPHA8 (various enzymes [12])	Ambit profiling: ITK (various enzymes [13])	Ambit profiling: KIT(V559D) (various enzymes [14])	Ambit profiling: ALK(C1156Y) (various enzymes [10]; compound 1 uM)	Ambit profiling: KIT(V559D) (various enzymes [14]; compound 1 uM)
COc1c2c(nn1C)CN(C(C)C)C(=O)CCCn1cc(c(C(F)(F)F)n1)-c1c[nH]c3ncc-2cc13 [Compound 50, (Z)-5-isopropyl-35-methoxy-31-methyl-13-(trifluoromethyl)-11H,21H,31H-5-aza-2(3,5)-pyrrolo[2,3-b]pyridina-1(4,1),3(4,3)-dipyrazolacyclononaphan-6-one]	0	66	100	11	47	53	11	11	55	26	56	26	46	0.95		
CC(C)N1Cc2nn(C)cc2-c2cnc3[nH]cc(c3c2)-c2cn(nc2C(F)(F)F)CCCC1=O [Compound 45, (Z)-5-isopropyl-31-methyl-13-(trifluoromethyl)-11H,21H,31H-5-aza-2(3,5)-pyrrolo[2,3-b]pyridina-1(4,1),3(4,3)-dipyrazolacyclononaphan-6-one]	11	100	100	0.25	14	91	4.3	6	77		19	8.7	38		16	3.2
